Assay results: patent publication US20140357512A1, “HISTONE DEACETYLASE (HDAC) BIOMARKERS IN MULTIPLE MYELOMA” (priority 2013, published 2014)

Tested on: human myeloma cell line MM.1S
Assay: SILAC acetylated-lysine peptide profiling, HDAC inhibitor vs DMSO (light/heavy ratio)
Type: cell-based
Description: An embodiment of the invention comprises utilizing the SILAC method in order to quantitate changes in protein expression between two or more populations of cells. The SILAC method is a technique based on mass spectrometry that detects differences in protein abundance among samples using non-radioactive isotopic labeling. The SILAC method is known in the art, and described in detail in Ong et al., “Stable Isotope Labeling by Amino Acids in Cell Culture, SILAC, as a Simple and Accurate Approach to Expression Proteomics”, Molecular & Cellular Proteomics, vol. 1, pp. 376-386 (2002), which is incorporated herein by reference in its entirety.
Briefly, the SILAC method involves growing two populations of cells in cell culture. The first population of cells is grown in growth media containing normal amino acids (“normal media”). The second population of cells is grown in media lacking a standard essential amino acid (such as lysine), but is then supplemented with a non-radioactive, isotopically labeled form of that essential amino acid (such as lysine labeled with ^13C atoms, rather than normal ^12C atoms), which is called “heavy media”. When the two populations of cells are each growing in the medium, they incorporate the amino acids into all of their proteins. The growth of cells maintained in the heavy media is no different from that in normal media. All peptides containing the heavy amino acids are heavier than their normal counterparts. The cells from each of the two populations of cells are lysed. The lysates from each of the two cell populations are then combined. The combined cell lysates are then analyzed by mass spectrometry. Pairs of chemically identical peptides of different stable isotope composition can be differentiated in a mass spectrometer due to their difference in mass. The ratio of peak intensities in the mass spectrum for such peptide pairs reflects the abundance ratio for the two proteins.
This example describes SILAC studies that were performed to compare the effects of three different HDAC inhibitors (Compound A, Compound B, and tubastatin A) to a control on a human multiple myeloma cell line. The HDAC inhibitors were also compared amongst themselves to determine differences in their effects.
A human myeloma cell line MM.1S was grown using either ^12C (light) or ^13C (heavy) lysine containing culture medium. The “heavy” cells were treated with DMSO as the control, and the “light” cells were treated with a single HDAC inhibitor at 37° C. for 6 hours. The heavy and light cells were lysed, and the lysates were mixed in 1:1 ratio and digested with the protease trypsin. The acetylated lysine containing peptides (due to the action of the HDAC inhibitor) in the digested peptide pool were captured by a non-specific anti-acetylated lysine antibody cocktail (the antibodies identify both light and heavy acetylated peptides), and subjected to mass spectrometry analysis in order to identify thousands of individual peptides.
Thousands of peptides were identified in pairs (^12C and ^13C) due to their known mass differences. The amino acid sequence and quantitative ratio (Light/Heavy) of a given peptide in two differentially treated cell lysates were then determined and annotated with their possible protein (gene) sources.
As stated above, three HDAC inhibitors (Compound A, Compound B, and Tubastatin A) were used. Thus, the SILAC method was performed three times, with a different HDAC inhibitor compared to a control each time. Accordingly, there are three pairs of quantitative data in the table below, i.e., Compound A:DMSO, Compound B:DMSO, and Tubastatin A:DMSO. A cut-off of 1.30 fold of change (increase or decrease) was then used to determine “changed” or “+” in the table, and any peptides with a fold of change less than 1.3 fold were determined to be “unchanged” or “0” in the table. Those peptides that were not identified were marked as “NA” in the table. […]

For `O=C(NO)c1cnc(NC2(c3cccc(F)c3)CCCCC2)nc1` [Compound B, 2-((1-(3-fluorophenyl)cyclohexyl)amino)-N-hydroxypyrimidine-5-carboxamide], the “light to heavy ratio (L/H ratio) of acetylated peptide TACAINK(ac)VLMGR (SEQ ID NO: 584)” value (Isoform 1 of Protein FAM98A [297], gene FAM98A, inhibitor:DMSO) was 0.00 log 2, the “light to heavy ratio (L/H ratio) of acetylated peptide VLSK(ac)[…] (SEQ ID NO: 294)” value (Isoform 1 of Protein SET [154], SET, drug:DMSO) was 0.00 log 2 and the “light to heavy ratio (L/H ratio) of acetylated peptide […](ac)ALK (SEQ ID NO: 349)” value (Isoform 1 of RNA-binding protein with serine-rich domain 1 [218], RNPS1, drug:DMSO) was −0.46 log 2. The “light to heavy ratio (L/H ratio), log 2 scale, acetylated peptide […](ac)TDQAQDVK (SEQ ID NO: 765)” value (Isoform 1 of Signal recognition particle 9 kDa protein [52], gene SRP9, drug:DMSO) was 0.00, the “light to heavy ratio (L/H ratio) of acetylated peptide VLISFK(ac)ANDIEK (SEQ ID NO: 363)” value (Isoform 2 of Actin-related protein 2/3 complex subunit 5 [90], ARPC5, drug:DMSO) was 0.42 log 2 and the “light to heavy ratio (L/H ratio) of acetylated peptide TMSCSDK(ac)ILR (SEQ ID NO: 323)” value (Isoform 2 of Double-stranded RNA-specific adenosine deaminase [1013], ADAR, drug:DMSO) was −0.65 log 2. For the same molecule, the “light to heavy ratio (L/H ratio) of acetylated peptide […](ac)[…] (SEQ ID NO: 336)” value (Isoform 2 of Fibronectin type-III domain-containing protein 3A [507], FNDC3A, drug:DMSO) was 0.40 log 2, the “light to heavy ratio (L/H ratio) of acetylated peptide K(ac)[…] (SEQ ID NO: 369)” value (Isoform 2 of Huntingtin-interacting protein K [35], C15orf63, drug:DMSO) was 1.00 log 2 and the “light to heavy ratio (L/H ratio) of acetylated peptide GAK(ac)PVVVLQK (SEQ ID NO: 611)” value (Isoform 2 of Nipped-B-like protein [1000], gene NIPBL, inhibitor:DMSO) was 0.00 log 2. The “light to heavy ratio (L/H ratio) of acetylated peptide LIAGNK(ac)[…] (SEQ ID NO: 512)” value (Isoform 2 of Nuclear factor related to kappa-B-binding protein [1262], gene NFRKB, inhibitor:DMSO) was 0.00 log 2, the “light to heavy ratio (L/H ratio) of acetylated peptide […](ac)K (SEQ ID NO: 626)” value (Isoform 2 of Septin-7 [207], gene, inhibitor:DMSO) was 0.00 log 2 and the “light to heavy ratio (L/H ratio) of acetylated peptide YQQFK(ac)DFQR (SEQ ID NO: 258)” value (Isoform 2 of Spliceosome RNA helicase DDX39B [349], SNORD84, DDX39B, drug:DMSO) was 0.00 log 2. For the same molecule, the “light to heavy ratio (L/H ratio) of acetylated peptide GLCEK(ac)PLASAAAK (SEQ ID NO: 536)” value (Isoform 2 of Transportin-3 [513], gene TNPO3, inhibitor:DMSO) was 0.00 log 2, the “light to heavy ratio (L/H ratio), log 2 scale, acetylated peptide LEPLK(ac)PLK (SEQ ID NO: 772)” value (Isoform 3 of Proline-rich protein 12 [1223], gene PRR12, drug:DMSO) was 0.00 and the “light to heavy ratio (L/H ratio) of acetylated peptide […](ac)FLK (SEQ ID NO: 326)” value (Isoform 5 of Transcriptional regulator ATRX [812], ATRX, drug:DMSO) was 0.89 log 2. For the same molecule, the “light to heavy ratio (L/H ratio), log 2 scale, acetylated peptide YNDPIYVK(ac)LEK (SEQ ID NO: 764)” value (Isoform A of AP-1 complex subunit beta-1 [335], gene AP1B1, drug:DMSO) was 0.00, the “light to heavy ratio (L/H ratio) of acetylated peptide MVAAAK(ac)YAR (SEQ ID NO: 324)” value (Isoform Heart of ATP synthase subunit gamma mitochondrial [55], ATP5C1, drug:DMSO) was −0.80 log 2 and the “light to heavy ratio (L/H ratio) of acetylated peptide VPNDK(ac)YYGAQTVR (SEQ ID NO: 625)” value (Isoform Mitochondrial of Fumarate hydratase mitochondrial [66], gene FH, inhibitor:DMSO) was 0.00 log 2. The “light to heavy ratio (L/H ratio) of acetylated peptide MMVAGFK(ac)K (SEQ ID NO: 339)” value (Isoform Short of Heterogeneous nuclear ribonucleoprotein U [524], HNRNPU, drug:DMSO) was −0.40 log 2, the “light to heavy ratio (L/H ratio) of acetylated peptide APQCLGK(ac)FIEIAAR (SEQ ID NO: 338)” value (Isoform Short of Heterogeneous nuclear ribonucleoprotein U [546], HNRNPU, drug:DMSO) was 0.75 log 2 and the “L/H ratio of acetylated peptide” value (K(ac)GPSVQKR (SEQ ID NO: 413), Isoform 1 of Protein lin-28 homolog B [240], LIN28B) was 0.47 log 2. For the same molecule, the “light to heavy ratio (L/H ratio) of acetylated peptide, log 2 scale” value (K(ac)[…] (SEQ ID NO: 152), Eukaryotic translation initiation factor 5A-2 [68], EIF5A2) was 0.00, the “light to heavy ratio (L/H ratio) of acetylated peptide, log 2 scale” value (K(ac)[…] (SEQ ID NO: 164), Similar to nonhistone chromosomal protein HMG-1 [30], HMGB1P4) was 0.00 and the “light to heavy ratio (L/H ratio) of acetylated peptide, log 2 scale” value (K(ac)[…] (SEQ ID NO: 246), Endoplasmin [270], HSP90B1) was 0.00. The “L/H ratio of acetylated peptide” value (K(ac)[…] (SEQ ID NO: 373), T-complex protein 1 subunit zeta [280], CCT6A) was 0.67 log 2, the “L/H ratio of acetylated peptide” value (KDFIK(ac)TTVK (SEQ ID NO: 388), Protein DEK [367], DEK) was 0.38 log 2 and the “L/H ratio of acetylated peptide” value (KK(ac)FLCVTK (SEQ ID NO: 411), Kelch repeat and BTB domain-containing protein 8 [178], KBTBD8) was 1.00 log 2. The “light to heavy ratio (L/H ratio) of acetylated peptide, log 2 scale” value (KLPK(ac)[…] (SEQ ID NO: 198), Ras-related protein Rab-5C [184], RAB5C) was 0.00, the “L/H ratio of acetylated peptide” value (KPEENPASK(ac)FSSASK (SEQ ID NO: 391), Eukaryotic translation initiation factor 4B [586], EIF4B) was 0.53 log 2 and the “L/H ratio of acetylated peptide” value (KSEDTISK(ac)MNDFMR (SEQ ID NO: 409), Isoform 1 of Gamma-interferon-inducible protein 16 [451], IFI16) was −0.57 log 2. For the same molecule, the “light to heavy ratio (L/H ratio) of acetylated peptide, log 2 scale” value (KTPCGEGSK(ac)TWDR (SEQ ID NO: 245), 40S ribosomal protein S20 [75], SNORD54, RPS20) was 0.00, the “light to heavy ratio (L/H ratio) of acetylated peptide IVADK(ac)DYSVTANSK (SEQ ID NO: 317)” value (L-lactate dehydrogenase B chain [82], LDHB, drug:DMSO) was 0.00 log 2 and the “L/H ratio of acetylated peptide” value (LCK(ac)YIYAK (SEQ ID NO: 390), Eukaryotic translation initiation factor 3 subunit C [553], EIF3C, EIF3CL) was 0.45 log 2.
